Reference: ChEMBL document CHEMBL5131493, “Synthesis and evaluation of RNase L-binding 2-aminothiophenes as anticancer agents” (Bioorg Med Chem, 2022)
Activity calls are given as the source filed them. The calls are words filed in the database; no cut-off is given here.

Key:
Homo sapiens = species on record: Homo sapiens; test: Binding affinity to RNase L (unknown origin) expressed in Escherichia coli BL21 (DE3) assessed as thermal stability by measuring melting temperature at 60 uM incubated for 50 mins by NanoDSF analysis
K562 = test: Antiproliferative activity against human K562 cells assessed as cell growth inhibition incubated for 72 hrs by MTT assay; format: functional, cell-based; details: K562, 72 h
JAR [1] = test: Induction of apoptosis in human JAR cells assessed as fold increase in cleaved PARP level at 10 uM incubated for 24 hrs by Western blot analysis; format: functional
JAR [2] = test: Induction of apoptosis in human JAR cells assessed as late apoptotic cells at 5 uM measured after 72 hrs by Annexin V-FITC/PI staining based flow cytometry (reference value: 11.67%); format: functional
JAR [3] = test: Inhibition of cell migration in human JAR cells at 5 uM measured after 72 hrs by scratch wound healing assay relative to control; format: functional
JAR [4] = test: Inhibition of colony formation in human JAR cells measured after 3 days by Giemsa staining based microscopic analysis; format: functional, cell-based; details: time 3.0 day, DDE = dose-dependent effect
JAR [5] = test: Antiproliferative activity against human JAR cells assessed as cell growth inhibition at 10 uM incubated for 72 hrs by MTT assay relative to control; format: functional
JAR [6] = test: Induction of apoptosis in human JAR cells assessed as early apoptotic cells at 5 uM measured after 72 hrs by Annexin V-FITC/PI staining based flow cytometry (reference value: 8.24%); format: functional
JAR [7] = test: Induction of apoptosis in human JAR cells assessed as live cells at 5 uM measured after 72 hrs by Annexin V-FITC/PI staining based flow cytometry (reference value: 79.87%); format: functional
A549 = test: Antiproliferative activity against human A549 cells assessed as cell growth inhibition incubated for 72 hrs by MTT assay; format: functional, cell-based; details: A549, 72 h
JAR [8] = test: Induction of apoptosis in human JAR cells assessed as live cells at 10 uM measured after 72 hrs by Annexin V-FITC/PI staining based flow cytometry (reference value: 79.87%); format: functional
JAR [9] = test: Antiproliferative activity against human JAR cells assessed as cell growth inhibition incubated for 72 hrs by MTT assay; format: functional, cell-based
MCF7 = test: Antiproliferative activity against human MCF7 cells assessed as cell growth inhibition incubated for 72 hrs by MTT assay; format: functional, cell-based; details: MCF7, 72 h
JAR [10] = test: Induction of apoptosis in human JAR cells assessed as late apoptotic cells at 10 uM measured after 72 hrs by Annexin V-FITC/PI staining based flow cytometry (reference value: 11.67%); format: functional
JAR [11] = test: Induction of apoptosis in human JAR cells assessed as fold increase in PARP cleavage at 5 to10 uM incubated for 24 hrs by Western blot analysis; format: functional; details: dose 10 µM
JAR [12] = test: Induction of apoptosis in human JAR cells assessed as necrotic cells at 10 uM measured after 72 hrs by Annexin V-FITC/PI staining based flow cytometry (reference value: 0.22%); format: functional
JAR [13] = test: Induction of apoptosis in human JAR cells assessed as early apoptotic cells at 10 uM measured after 72 hrs by Annexin V-FITC/PI staining based flow cytometry (reference value: 8.24%); format: functional
JAR [14] = test: Induction of apoptosis in human JAR cells assessed as necrotic cells at 5 uM measured after 72 hrs by Annexin V-FITC/PI staining based flow cytometry (reference value: 0.22%); format: functional
JAR [15] = test: Inhibition of colony formation in human JAR cells assessed as cell reproductive death at upto 5 uM measured after 3 days by Giemsa staining based microscopic analysis; format: functional; details: time 3.0 day

ΔTm (Homo sapiens): 0.8 °C
IC50 (K562): 1.6 µM
IC50 (A549): 8 µM
IC50 (MCF7): 5.2 µM
SMILES: CCOC(=O)C1=C(Nc2ccccc2)S/C(=C\c2ccc(F)c(C#N)c2)C1=O
fold change (FC) (JAR [1]): >2
Activity (JAR [2]): 27.47%
inhibition at 5 µM (JAR [3]): 85%
inhibition (JAR [4]): Dde
inhibition at 10 µM (JAR [5]): 99.9%
Activity (JAR [6]): 23.02%
Activity (JAR [7]): 47.62%
Activity (JAR [8]): 32.48%
IC50 (JAR [9]): 1.5 µM
Activity (JAR [10]): 55.7%
fold change (FC) (JAR [11]): >2
Activity (JAR [12]): 6.8%
Activity (JAR [13]): 5.06%
Activity (JAR [14]): 1.88%
inhibition (JAR [15]): Active
